Data taken from patent US10745395B2, “Compounds for their use as drugs for the treatment and/or the prevention of infection(s) caused by biofilm-forming bacteria” (CENTRE NATIONAL DE LA RECHERCHE SCIENTIFIQUE, priority 2014, dated 2020).

What was measured:
Format in all cases: cell-based, Pseudomonas aeruginosa
[1] = tested on: P. aeruginosa strain PAR 50; test: Antibiotic susceptibility test, disk diffusion (EUCAST); parameters: key: R means resistant to the antibiotic; S means sensitive to the antibiotic; conditions: disk load given per antibiotic
Description: (§1) All tests were performed on Pseudomonas aeruginosa strains coded: PAR 5, PAR 20, PAR 50, isolated from suppurated wounds of three male patients with chronic diabetic foot infections.
(§2) Drug resistance of the P. aeruginosa strains were tested using the disk diffusion method. Interpretation of the drug resistance of the Pseudomonas aeruginosa strains was done in accordance with the EUCAST standards (see the reference below for more information): http://www.eucast.org/fileadmin/src/media/PDFs/EUCAST_files/Breakpoint tables/Breakpoint_table_v_3.1.pdf.
(§3) To determine the drug resistance of the strains, the following antibiotics were used: amikacin, ciprofloxacin, gentamicin, piperacillin, tobramycin, ceftazidime (Oxoid, Basingstoke, UK). R means resistant to the antibiotic and S means sensitive to the antibiotic.

[2] = tested on: P. aeruginosa strain PAR 20; test: as above; parameters: key: R means resistant to the antibiotic; S means sensitive to the antibiotic; conditions: disk load given per antibiotic
Description: as §1, §2, §3

[3] = tested on: P. aeruginosa strain PAR 5; test: as above; parameters: key: R means resistant to the antibiotic; S means sensitive to the antibiotic; conditions: disk load given per antibiotic
Description: as §1, §2, §3

[4] = tested on: P. aeruginosa strain PAR 50 biofilm; test: Early biofilm model, Congo red staining; conditions: for absorbance (Congo red, biofilm formation): early biofilm, 0.9 mM, 492 nm
In short: (§4)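 Biofilm set up from 1×10^8 CFU/ml P. aeruginosa in TSB, centrifuged 10 min at 2000 rpm; iminosugars at 0.9 mM added at seeding, incubated up to 48 h at 37° C. Biofilm stained with 0.1% Congo red for 30 min and read at 492 nm at 0, 0.5, 8, 24 and 48 h, with viable counts in parallel; TSB-only cultures served as control.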

[5] = tested on: P. aeruginosa strain PAR 5 biofilm; test: Early biofilm model, Congo red staining; conditions: for absorbance (Congo red, biofilm formation): 0.9 mM, 492 nm
In short: as §4

[6] = tested on: P. aeruginosa strain PAR 20 biofilm; test: Early biofilm model, Congo red staining; conditions: for absorbance (Congo red, biofilm formation): early biofilm, 0.9 mM, 492 nm
In short: as §4

[7] = tested on: P. aeruginosa strain PAR 50 biofilm; test: Mature biofilm model, Congo red staining; conditions: for absorbance (Congo red, biofilm development): mature biofilm, compound added 48 h after induction of biofilm
In short: (§5)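 Compounds added 48 h after bacterial adherence in 96-well plates; biofilm checked at 48, 48.5, 56, 72 and 96 h. Biomass stained with 0.1% Congo red for 30 min at room temperature, washed, absorbance read at 492 nm. Triplicate means ±SD.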

[8] = tested on: P. aeruginosa strain PAR 5 biofilm; test: Mature biofilm model, Congo red staining; conditions: for absorbance (Congo red, biofilm development): mature biofilm, compound added 48 h after induction of biofilm
In short: as §5

[9] = tested on: P. aeruginosa strain PAR 20 biofilm; test: Mature biofilm model, Congo red staining; conditions: for absorbance (Congo red, biofilm development): mature biofilm, compound added 48 h after induction of biofilm
In short: as §5

[10] = tested on: P. aeruginosa strain PAR 5 biofilm; test: Reduction of biofilm growth (percent vs culture control)
In short: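 Iminosugars at 0.9 mM final were added to P. aeruginosa in TSB either at seeding (early biofilm, 48 h at 37° C) or 48 h after bacterial adherence (mature biofilm). Biofilm stained with Congo Red and read spectrophotometrically; percent decrease in thickness is the mean of 3 measurements relative to untreated control (100%).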

[11] = tested on: P. aeruginosa strain PAR 20 biofilm; test: as above
[12] = tested on: P. aeruginosa strain PAR 50; test: Number of viable bacteria in early and mature biofilm (viable count)
In short: (§6)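 Biofilm contents of P. aeruginosa PAR 5, PAR 20 or PAR 50 wells sampled at 0-96 h, iminosugars added at 48 h. Decimal dilutions in TSB were plated on McConkey agar, incubated 24 h at 37° C., and colonies counted as log CFU/ml; detection limit 100 CFU/ml.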

[13] = tested on: P. aeruginosa strain PAR 20; test: as above
In short: as §6

[14] = tested on: P. aeruginosa strain PAR 5; test: as above
In short: as §6

[15] = tested on: P. aeruginosa strain PAR 50 biofilm; test: Reduction of biofilm growth (percent vs culture control)
In short: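 Biofilms grown in TSB at 37 °C; compounds at 0.9 mM final added at inoculation (early biofilm, 48 h) or 48 h after bacterial adherence (mature biofilm). Congo Red-stained biofilm read by spectrophotometry, mean of 3 measurements; reduction expressed as percent versus untreated control set to 100%.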

[16] = in comparison with culture control

## CC(C)(O/N=C(\C(=O)N[C@@H]1C(=O)N2C(C(=O)[O-])=C(C[n+]3ccccc3)CS[C@H]12)c1csc(N)n1)C(=O)O [Ceftazidime]
[1]
  Antibiotic susceptibility (according to EUCAST): S
[2]
  Antibiotic susceptibility (according to EUCAST): S
[3]
  Antibiotic susceptibility (according to EUCAST): R

## Gentamicin
[1]
  Antibiotic susceptibility (according to EUCAST): R
[2]
  Antibiotic susceptibility (according to EUCAST): S
[3]
  Antibiotic susceptibility (according to EUCAST): S

## NCC[C@H](O)C(=O)N[C@@H]1C[C@H](N)[C@@H](O[C@H]2O[C@H](CN)[C@@H](O)[C@H](O)[C@H]2O)[C@H](O)[C@H]1O[C@H]1O[C@H](CO)[C@@H](O)[C@H](N)[C@H]1O [Amikacin]
[1]
  Antibiotic susceptibility (according to EUCAST): R
[2]
  Antibiotic susceptibility (according to EUCAST): S
[3]
  Antibiotic susceptibility (according to EUCAST): S

## CCCCCC[C@H]1NC[C@@H](O)[C@H](O)[C@H]1O [Compound 1, α-1-C-hexyl-1,5-dideoxy-1,5-imino-D-xylitol]
[4]; 8 hours
  absorbance (Congo red, biofilm formation): about 0.5 a.u.
[4]; 24 hours
  absorbance (Congo red, biofilm formation): about 0.8 a.u.
[4]; 48 hours
  absorbance (Congo red, biofilm formation): about 0.9 a.u.
[4]; [16]
  effect on formation of an early biofilm: inhibit the formation of an early biofilm
[5]; early biofilm
  biofilm formation at 8 hours, 24 hours and 48 hours: no biofilm formation
[5]; early biofilm, 8 hours
  absorbance (Congo red, biofilm formation): about 0.25 a.u.
[5]; early biofilm, 24 hours
  absorbance (Congo red, biofilm formation): about 0.25 a.u.
[5]; early biofilm, 48 hours
  absorbance (Congo red, biofilm formation): about 0.25 a.u.
[5]; [16]
  effect on formation of an early biofilm: inhibit the formation of an early biofilm
[6]; 8 hours
  absorbance (Congo red, biofilm formation): about 1.0 a.u.
[6]; 24 hours
  absorbance (Congo red, biofilm formation): about 1.0 a.u.
[6]; 48 hours
  absorbance (Congo red, biofilm formation): about 0.75 a.u.
[6]; [16]
  effect on formation of an early biofilm: inhibit the formation of an early biofilm
[7]
  influence on mature biofilm formation: weak influence
[7]; 48 hours
  absorbance (Congo red, biofilm development): about 1.6 a.u.
[7]; 56 hours
  absorbance (Congo red, biofilm development): about 1.5 a.u.
[7]; 72 hours
  absorbance (Congo red, biofilm development): about 2.4 a.u.
[7]; 96 hours
  absorbance (Congo red, biofilm development): about 1.9 a.u.
[8]
  influence on mature biofilm formation: weak influence
[8]; 48 hours
  absorbance (Congo red, biofilm development): about 0.7 a.u.
[8]; 56 hours
  absorbance (Congo red, biofilm development): about 1.1 a.u.
[8]; 72 hours
  absorbance (Congo red, biofilm development): about 1.25 a.u.
[8]; 96 hours
  absorbance (Congo red, biofilm development): about 0.5 a.u.
[9]
  influence on mature biofilm formation: weak influence
[9]; 48 hours
  absorbance (Congo red, biofilm development): about 0.75 a.u.
[9]; 56 hours
  absorbance (Congo red, biofilm development): about 0.6 a.u.
[9]; 72 hours
  absorbance (Congo red, biofilm development): about 1.5 a.u.
[9]; 96 hours
  absorbance (Congo red, biofilm development): about 1.0 a.u.
[10]; 8 hours of incubation
  reduction of biofilm growth: about 90%
[10]; 24 hours of incubation
  reduction of biofilm growth: about 90%
[10]; 48 hours of incubation
  reduction of biofilm growth: about 25%
[10]; 72 hours of incubation
  reduction of biofilm growth: about 10%
[10]; notably an early biofilm
  effect on biofilm growth: can reduce the biofilm growth
[11]; 8 hours of incubation
  reduction of biofilm growth: about 30%
[11]; 24 hours of incubation
  reduction of biofilm growth: about 40%
[11]; 48 hours of incubation
  reduction of biofilm growth: about 40%
[11]; 72 hours of incubation
  reduction of biofilm growth: about 0%
[11]; notably an early biofilm
  effect on biofilm growth: can reduce the biofilm growth
[12]; early biofilm, 0 h
  number of viable P. aeruginosa: 8 × 10^7 CFU/ml
[12]; early biofilm, 8 h
  number of viable P. aeruginosa: 2 × 10^8 CFU/ml
[12]; early biofilm, 24 h
  number of viable P. aeruginosa: 4 × 10^8 CFU/ml
[12]; early biofilm, 48 h
  number of viable P. aeruginosa: 3 × 10^8 CFU/ml
[12]; mature biofilm, 56 h
  number of viable P. aeruginosa: 2 × 10^9 CFU/ml
[12]; mature biofilm, 72 h
  number of viable P. aeruginosa: 1 × 10^9 CFU/ml
[12]; mature biofilm, 96 h
  number of viable P. aeruginosa: 1 × 10^9 CFU/ml
[13]; early biofilm, 0 h
  number of viable P. aeruginosa: 4 × 10^6 CFU/ml
[13]; early biofilm, 8 h
  number of viable P. aeruginosa: 7 × 10^7 CFU/ml
[13]; early biofilm, 24 h
  number of viable P. aeruginosa: 1 × 10^8 CFU/ml
[13]; early biofilm, 48 h
  number of viable P. aeruginosa: 4 × 10^8 CFU/ml
[13]; mature biofilm, 56 h
  number of viable P. aeruginosa: 6 × 10^7 CFU/ml
[13]; mature biofilm, 72 h
  number of viable P. aeruginosa: 5 × 10^7 CFU/ml
[13]; mature biofilm, 96 h
  number of viable P. aeruginosa: 1 × 10^8 CFU/ml
[14]; early biofilm, 0 h
  number of viable P. aeruginosa: 2 × 10^6 CFU/ml
[14]; early biofilm, 8 h
  number of viable P. aeruginosa: 3 × 10^7 CFU/ml
[14]; early biofilm, 24 h
  number of viable P. aeruginosa: 9 × 10^7 CFU/ml
[14]; early biofilm, 48 h
  number of viable P. aeruginosa: 1 × 10^8 CFU/ml
[14]; mature biofilm, 56 h
  number of viable P. aeruginosa: 3 × 10^8 CFU/ml
[14]; mature biofilm, 72 h
  number of viable P. aeruginosa: 2 × 10^8 CFU/ml
[14]; mature biofilm, 96 h
  number of viable P. aeruginosa: 3 × 10^8 CFU/ml
[15]; 8 hours of incubation
  reduction of biofilm growth: about 30%
[15]; 24 hours of incubation
  reduction of biofilm growth: about 30%
[15]; 48 hours of incubation
  reduction of biofilm growth: about 0%
[15]; 72 hours of incubation
  reduction of biofilm growth: about 0%
[15]; notably an early biofilm
  effect on biofilm growth: can reduce the biofilm growth

## O=C(O)c1cn(C2CC2)c2cc(N3CCNCC3)c(F)cc2c1=O [Ciprofloxacin]
[1]
  Antibiotic susceptibility (according to EUCAST): S
[2]
  Antibiotic susceptibility (according to EUCAST): S
[3]
  Antibiotic susceptibility (according to EUCAST): S

## CCN1CCN(C(=O)N[C@@H](C(=O)N[C@@H]2C(=O)N3[C@@H]2SC(C)(C)[C@@H]3C(=O)O)c2ccccc2)C(=O)C1=O [Piperacillin]
[1]
  Antibiotic susceptibility (according to EUCAST): R
[2]
  Antibiotic susceptibility (according to EUCAST): S
[3]
  Antibiotic susceptibility (according to EUCAST): S

## NC[C@H]1O[C@H](O[C@H]2[C@H](O)[C@@H](O[C@H]3O[C@H](CO)[C@@H](O)[C@H](N)[C@H]3O)[C@H](N)C[C@@H]2N)[C@H](N)C[C@@H]1O [Tobramycin]
[1]
  Antibiotic susceptibility (according to EUCAST): R
[2]
  Antibiotic susceptibility (according to EUCAST): S
[3]
  Antibiotic susceptibility (according to EUCAST): S
